# Measurements taken from publication PMC9508125, “The evolutionary advantage of an aromatic clamp in plant family 3 glycoside exo-hydrolases” (Nature Communications, 2022).
# Where a chain is given by its changes, count along the chain named.
# Key:
# Experiment in all cases: Relative rates of hydrolysis of poly-, oligosaccharides and aryl-glycosides
# Type in all cases: biochemical
# Settings in all cases: substance is the substrate, nd = activity not detected
# HvExoI W434A mutant = molecular target: T1, HvExoI W434A mutant (Hordeum vulgare, UniProt Q9XEI3, W459A)
# T1 sequence (Q9XEI3 26-630 W459A): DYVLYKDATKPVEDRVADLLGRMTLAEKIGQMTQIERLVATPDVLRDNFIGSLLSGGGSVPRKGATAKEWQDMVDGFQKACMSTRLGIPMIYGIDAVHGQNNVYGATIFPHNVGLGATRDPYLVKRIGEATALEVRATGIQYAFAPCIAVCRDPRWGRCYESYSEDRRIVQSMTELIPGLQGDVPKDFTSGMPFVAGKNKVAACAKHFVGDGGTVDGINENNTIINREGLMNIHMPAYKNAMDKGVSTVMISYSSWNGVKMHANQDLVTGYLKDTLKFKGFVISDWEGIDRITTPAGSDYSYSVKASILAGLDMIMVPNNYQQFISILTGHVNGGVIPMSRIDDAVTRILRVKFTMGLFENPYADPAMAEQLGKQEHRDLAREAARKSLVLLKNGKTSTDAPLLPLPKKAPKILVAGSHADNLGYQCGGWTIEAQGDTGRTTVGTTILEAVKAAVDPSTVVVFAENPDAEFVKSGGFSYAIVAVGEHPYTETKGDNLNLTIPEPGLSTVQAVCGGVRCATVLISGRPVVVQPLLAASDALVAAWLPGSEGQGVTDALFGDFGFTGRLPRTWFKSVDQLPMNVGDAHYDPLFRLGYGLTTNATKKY
# Procedure, shortened: (§1)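 Steady-state apparent constants are derived from proportionally weighted nonlinear regression of Michaelis-Menten data. Rates of hydrolysis of polysaccharides, oligosaccharides and aryl-glucosides are relative values obtained with 50 pmoles of near-homogeneous HvExoI. The pH and temperature dependence was tested on 0.2% (w/v) 4NP-Glc.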
# HvExoI W434Y mutant = molecular target: T2, HvExoI W434Y mutant (Hordeum vulgare, UniProt Q9XEI3, W459Y)
# T2 sequence (Q9XEI3 26-630 W459Y): T1 sequence (Q9XEI3 26-630 W459A) with A434Y
# Procedure, shortened: as §1
# HvExoI W434F mutant = molecular target: T3, HvExoI W434F mutant (Hordeum vulgare, UniProt Q9XEI3, W459F)
# T3 sequence (Q9XEI3 26-630 W459F): T1 sequence (Q9XEI3 26-630 W459A) with A434F
# Procedure, shortened: as §1
# [1] = molecular target: T4, HvExoI W286F/W434A mutant (Hordeum vulgare, UniProt Q9XEI3, W311F/W459A)
# T4 sequence (Q9XEI3 26-630 W311F/W459A): T1 sequence (Q9XEI3 26-630 W459A) with W286F
# Procedure, shortened: as §1
Compound,Activity (relative rate of hydrolysis) (HvExoI W434A mutant) [μmole/min per mg protein],Activity (relative rate of hydrolysis) (HvExoI W434Y mutant) [μmole/min per mg protein],Activity (relative rate of hydrolysis) (HvExoI W434F mutant) [μmole/min per mg protein],Activity (relative rate of hydrolysis) [1] [μmole/min per mg protein]
OC[C@H]1O[C@@H](O[C@@H]2[C@@H](O)[C@H](O[C@@H]3[C@@H](O)[C@H](O[C@@H]4[C@@H](O)[C@H](O[C@@H]5[C@@H](O)[C@H](O)O[C@H](CO)[C@H]5O)O[C@H](CO)[C@H]4O)O[C@H](CO)[C@H]3O)O[C@H](CO)[C@H]2O)[C@H](O)[C@@H](O)[C@@H]1O [Laminaripentaose],1.0 ± 0.1,1.5 ± 0.1,14.6 ± 0.4,0.2 ± 0.02
OC[C@H]1O[C@@H](O[C@@H]2[C@@H](O)[C@H](O[C@@H]3[C@@H](O)[C@H](O[C@@H]4[C@@H](O)[C@H](O[C@@H]5[C@@H](O)[C@H](O[C@H]6[C@H](O)[C@@H](CO)OC(O)[C@@H]6O)O[C@H](CO)[C@H]5O)O[C@H](CO)[C@H]4O)O[C@H](CO)[C@H]3O)O[C@H](CO)[C@H]2O)[C@H](O)[C@@H](O)[C@@H]1O (some centres unmarked) [Laminarihexaose],1.0 ± 0.02,1.4 ± 0.1,15.8 ± 1.0,0.1 ± 0.004
OC[C@H]1O[C@@H](O[C@H]2[C@H](O)[C@@H](O)[C@H](O[C@H]3[C@H](O)[C@@H](O)[C@H](O[C@H]4[C@H](O)[C@@H](O)[C@H](O[C@H]5[C@H](O)[C@@H](O)[C@H](O[C@H]6[C@H](O)[C@@H](O)C(O)O[C@@H]6CO)O[C@@H]5CO)O[C@@H]4CO)O[C@@H]3CO)O[C@@H]2CO)[C@H](O)[C@@H](O)[C@@H]1O (some centres unmarked) [Cellohexaose],,0.1 ± 0.01,1.9 ± 0.1,0.01 ± 0.0002
OC[C@H]1O[C@@H](O[C@@H]2[C@@H](O)[C@H](O[C@@H]3[C@@H](O)[C@H](O[C@@H]4[C@@H](O)[C@H](O[C@@H]5[C@@H](O)[C@H](O[C@@H]6[C@@H](O)[C@H](O[C@@H]7[C@@H](O)[C@H](O)O[C@H](CO)[C@H]7O)O[C@H](CO)[C@H]6O)O[C@H](CO)[C@H]5O)O[C@H](CO)[C@H]4O)O[C@H](CO)[C@H]3O)O[C@H](CO)[C@H]2O)[C@H](O)[C@@H](O)[C@@H]1O [Laminariheptaose],1.0 ± 0.1,1.3 ± 0.1,13.5 ± 0.4,0.1 ± 0.004
OC[C@H]1O[C@@H](O[C@H]2[C@H](O)[C@@H](O)[C@H](O[C@H]3[C@H](O)[C@@H](O)[C@H](O[C@H]4[C@H](O)[C@@H](O)C(O)O[C@@H]4CO)O[C@@H]3CO)O[C@@H]2CO)[C@H](O)[C@@H](O)[C@@H]1O (some centres unmarked) [Cellotetraose],,0.1 ± 0.01,1.9 ± 0.1,0.1 ± 0.01
Cellobiose,,0.1 ± 0.001,0.4 ± 0.1,0.01 ± 0.001
OC[C@H]1O[C@@H](O[C@H]2[C@H](O)[C@@H](O)[C@H](O[C@H]3[C@H](O)[C@@H](O)[C@H](O[C@H]4[C@H](O)[C@@H](O)[C@H](O[C@H]5[C@H](O)[C@@H](O)C(O)O[C@@H]5CO)O[C@@H]4CO)O[C@@H]3CO)O[C@@H]2CO)[C@H](O)[C@@H](O)[C@@H]1O (some centres unmarked) [Cellopentaose],,0.1 ± 0.002,1.7 ± 0.1,0.01 ± 0.0003
OC[C@H]1O[C@@H](O[C@@H]2[C@@H](O)[C@H](O[C@@H]3[C@@H](O)[C@H](O[C@H]4[C@H](O)[C@@H](CO)OC(O)[C@@H]4O)O[C@H](CO)[C@H]3O)O[C@H](CO)[C@H]2O)[C@H](O)[C@@H](O)[C@@H]1O (some centres unmarked) [Laminaritetraose],1.1 ± 0.1,1.3 ± 0.1,15.0 ± 1.5,0.2 ± 0.01
"O=[N+]([O-])c1ccc(O[C@@H]2O[C@H](CO)[C@@H](O)[C@H](O)[C@H]2O)cc1 [4NP-Glc, 4-nitrophenyl β-D-glucopyranoside]",6.1 ± 0.1,1.2 ± 0.1,5.0 ± 0.01,1.8 ± 0.03
Gentiobiose,,0.1 ± 0.01,1.2 ± 0.3,0.002 ± 0.0002
OC[C@H]1O[C@@H](O[C@H]2[C@H](O)[C@@H](O)[C@H](O[C@H]3[C@H](O)[C@@H](O)C(O)O[C@@H]3CO)O[C@@H]2CO)[C@H](O)[C@@H](O)[C@@H]1O (some centres unmarked) [Cellotriose],,0.1 ± 0.02,1.2 ± 0.3,0.01 ± 0.001
OC[C@H]1O[C@@H](O[C@H]2C(O)O[C@H](CO)[C@@H](O)[C@@H]2O)[C@H](O)[C@@H](O)[C@@H]1O (some centres unmarked) [Sophorose],,0.8 ± 0.1,6.6 ± 0.4,0.02 ± 0.001
